# Data reported in US20130072430A1, “METHODS FOR TREATMENT OR PROPHYLAXIS OF KIDNEY OR LIVER DYSFUNCTION” (NPS PHARMACEUTICALS, INC., priority 2010, published 2013).
# Tested on: Human patients with short bowel syndrome
# Test: Example 1: liver diagnostic biomarkers (total bilirubin, ALT, AST, ALP) in short bowel syndrome patients, every four weeks for 24 weeks
# Format: in vivo
# Design: AST (SGOT) Change from Baseline, Median / ALT (SGPT), Median / TOTAL BILIRUBIN, Median / TOTAL BILIRUBIN Change from Baseline, Median / ALT (SGPT) Change from Baseline, Median / AST (SGOT), Median: unit not given here
# Settings: 0.05 mg/kg/day
# Procedure: Human patients with short bowel syndrome were divided into three groups: a control group (16 total individuals) to receive placebo, an experimental group (35 total individuals) to receive teduglutide at 0.05 mg/kg/day throughout the study, and an experimental group (32 total individuals) to receive teduglutide at 0.1 mg/kg/day throughout the study. Patients were treated by subcutaneous injection of placebo or the appropriate dose of teduglutide. As individuals with short bowel syndrome are likely to experience associated liver and kidney disease, known biomarkers of liver and kidney function were monitored every four weeks, for 24 weeks. The liver biomarkers tested included total bilirubin, ALT and AST and ALP. The kidney biomarkers tested included urea nitrogen, creatinine and GFR. Before administration of placebo or teduglutide, diagnostic biomarker levels were tested to establish a baseline for each individual.
# To visualize the effect of GLP-2 on the levels of the diagnostic biomarkers, the average change from baseline was calculated for the placebo and teduglutide treated groups for each visit after a baseline was established. The average change from baseline of each group is depicted in FIGS. […]. The numerical figures for each diaanostic biomarker at each time point are depicted in Table 1.
# The efficacy of teduglutide in treating liver dysfunction was further tested by sorting the data into two groups: individuals with abnormal baseline values of liver diagnostic biomarkers; and individuals with normal baseline values of liver diagnostic biomarkers. The mean diagnostic biomarker change from baseline for these two groups is shown for ALT (FIGS. 5 and 6) and AST (FIGS. 7 and 8). […] These changes were significant when compared to baseline levels for the group, and when compared to placebo (see FIGS. 5 and 7).
# The raw data for this sorting is reproduced in Table 2 below.
compound,measurement,setting,value
CC[C@H](C)[C@H](NC(=O)[C@H](Cc1ccccc1)NC(=O)[C@H](CC(=O)O)NC(=O)[C@H](CCCNC(=N)N)NC(=O)[C@H](C)NC(=O)[C@H](C)NC(=O)[C@H](CC(C)C)NC(=O)[C@H](CC(N)=O)NC(=O)[C@H](CC(=O)O)NC(=O)[C@H](CC(C)C)NC(=O)[C@@H](NC(=O)[C@@H](NC(=O)[C@H](CC(N)=O)NC(=O)[C@H](CCSC)NC(=O)[C@H](CCC(=O)O)NC(=O)[C@H](CC(=O)O)NC(=O)[C@H](CO)NC(=O)[C@H](Cc1ccccc1)NC(=O)[C@H](CO)NC(=O)CNC(=O)[C@H](CC(=O)O)NC(=O)CNC(=O)[C@@H](N)Cc1c[nH]cn1)[C@@H](C)O)[C@@H](C)CC)C(=O)N[C@@H](CC(N)=O)C(=O)N[C@@H](Cc1c[nH]c2ccccc12)C(=O)N[C@@H](CC(C)C)C(=O)N[C@H](C(=O)N[C@@H](CCC(N)=O)C(=O)N[C@H](C(=O)N[C@@H](CCCCN)C(=O)N[C@H](C(=O)N[C@H](C(=O)N[C@@H](CC(=O)O)C(=O)O)[C@@H](C)O)[C@@H](C)CC)[C@@H](C)O)[C@@H](C)CC [teduglutide],"ALKALINE PHOSPHATASE Change from Baseline, Mean (SD)",DW4,−24.8 (45.66)
same,"ALKALINE PHOSPHATASE Change from Baseline, Median",DW4,−16.0
same,"ALKALINE PHOSPHATASE, Mean (SD)",DW4,159.5 (90.91)
same,"ALKALINE PHOSPHATASE, Median",DW4,139.0
same,"ALT (SGPT) Change from Baseline, Mean (SD)",DW4,−14.9 (26.39)
same,"ALT (SGPT) Change from Baseline, Median",DW4,−5.0
same,"ALT (SGPT), Mean (SD)",DW4,30.1 (14.08)
same,"ALT (SGPT), Median",DW4,27.0
same,"AST (SGOT) Change from Baseline, Mean (SD)",DW4,−5.5 (24.09)
same,"AST (SGOT) Change from Baseline, Median",DW4,−4.0
same,"AST (SGOT), Mean (SD)",DW4,29.1 (19.23)
same,"AST (SGOT), Median",DW4,27.0
same,"TOTAL BILIRUBIN Change from Baseline, Mean (SD)",DW4,−0.8 (4.31)
same,"TOTAL BILIRUBIN Change from Baseline, Median",DW4,0.0
same,"TOTAL BILIRUBIN, Mean (SD)",DW4,10.4 (9.48)
same,"TOTAL BILIRUBIN, Median",DW4,7.0
same,"ALKALINE PHOSPHATASE Change from Baseline, Mean (SD)",DW8,−24.0 (64.47)
same,"ALKALINE PHOSPHATASE Change from Baseline, Median",DW8,−20.0
same,"ALKALINE PHOSPHATASE, Mean (SD)",DW8,152.2 (84.05)
same,"ALKALINE PHOSPHATASE, Median",DW8,134.0
same,"ALT (SGPT) Change from Baseline, Mean (SD)",DW8,−9.8 (30.38)
same,"ALT (SGPT) Change from Baseline, Median",DW8,−4.0
same,"ALT (SGPT), Mean (SD)",DW8,37.3 (23.71)
same,"ALT (SGPT), Median",DW8,31.5
same,"AST (SGOT) Change from Baseline, Mean (SD)",DW8,−3.2 (19.88)
same,"AST (SGOT) Change from Baseline, Median",DW8,−3.0
same,"AST (SGOT), Mean (SD)",DW8,33.5 (18.56)
same,"AST (SGOT), Median",DW8,28.0
same,"TOTAL BILIRUBIN Change from Baseline, Mean (SD)",DW8,−0.4 (4.78)
same,"TOTAL BILIRUBIN Change from Baseline, Median",DW8,−1.0
same,"TOTAL BILIRUBIN, Mean (SD)",DW8,10.8 (8.86)
same,"TOTAL BILIRUBIN, Median",DW8,8.0
same,"ALKALINE PHOSPHATASE Change from Baseline, Mean (SD)",DW12,−39.4 (48.95)
same,"ALKALINE PHOSPHATASE Change from Baseline, Median",DW12,−24.0
same,"ALKALINE PHOSPHATASE, Mean (SD)",DW12,143.5 (73.92)
same,"ALKALINE PHOSPHATASE, Median",DW12,130.5
same,"ALT (SGPT) Change from Baseline, Mean (SD)",DW12,−12.7 (29.55)
same,"ALT (SGPT) Change from Baseline, Median",DW12,−10.0
same,"ALT (SGPT), Mean (SD)",DW12,34.6 (24.30)
same,"ALT (SGPT), Median",DW12,26.0
same,"AST (SGOT) Change from Baseline, Mean (SD)",DW12,−5.9 (19.28)
same,"AST (SGOT) Change from Baseline, Median",DW12,−8.0
same,"AST (SGOT), Mean (SD)",DW12,29.2 (15.48)
same,"AST (SGOT), Median",DW12,26.5
same,"TOTAL BILIRUBIN Change from Baseline, Mean (SD)",DW12,−1.8 (5.75)
same,"TOTAL BILIRUBIN Change from Baseline, Median",DW12,−1.0
same,"TOTAL BILIRUBIN, Mean (SD)",DW12,9.4 (6.65)
same,"TOTAL BILIRUBIN, Median",DW12,7.0
same,"ALKALINE PHOSPHATASE Change from Baseline, Mean (SD)",DW16,−12.3 (69.90)
same,"ALKALINE PHOSPHATASE Change from Baseline, Median",DW16,−20.5
same,"ALKALINE PHOSPHATASE, Mean (SD)",DW16,168.2 (128.08)
same,"ALKALINE PHOSPHATASE, Median",DW16,134.0
same,"ALT (SGPT) Change from Baseline, Mean (SD)",DW16,−3.2 (24.76)
same,"ALT (SGPT) Change from Baseline, Median",DW16,−2.5
same,"ALT (SGPT), Mean (SD)",DW16,39.5 (39.44)
same,"ALT (SGPT), Median",DW16,28.0
same,"AST (SGOT) Change from Baseline, Mean (SD)",DW16,−4.3 (11.75)
same,"AST (SGOT) Change from Baseline, Median",DW16,−1.5
same,"AST (SGOT), Mean (SD)",DW16,29.3 (12.05)
same,"AST (SGOT), Median",DW16,25.0
same,"TOTAL BILIRUBIN Change from Baseline, Mean (SD)",DW16,−1.3 (9.00)
same,"TOTAL BILIRUBIN Change from Baseline, Median",DW16,−1.0
same,"TOTAL BILIRUBIN, Mean (SD)",DW16,10.0 (8.90)
same,"TOTAL BILIRUBIN, Median",DW16,7.0
same,"ALKALINE PHOSPHATASE Change from Baseline, Mean (SD)",DW20,−36.9 (49.89)
same,"ALKALINE PHOSPHATASE Change from Baseline, Median",DW20,−25.0
same,"ALKALINE PHOSPHATASE, Mean (SD)",DW20,144.2 (76.09)
same,"ALKALINE PHOSPHATASE, Median",DW20,136.5
same,"ALT (SGPT) Change from Baseline, Mean (SD)",DW20,−16.0 (28.73)
same,"ALT (SGPT) Change from Baseline, Median",DW20,−5.0
same,"ALT (SGPT), Mean (SD)",DW20,29.7 (13.35)
same,"ALT (SGPT), Median",DW20,26.0
same,"AST (SGOT) Change from Baseline, Mean (SD)",DW20,−8.0 (14.96)
same,"AST (SGOT) Change from Baseline, Median",DW20,−4.0
same,"AST (SGOT), Mean (SD)",DW20,26.1 (7.02)
same,"AST (SGOT), Median",DW20,25.0
same,"TOTAL BILIRUBIN Change from Baseline, Mean (SD)",DW20,−0.8 (5.69)
same,"TOTAL BILIRUBIN Change from Baseline, Median",DW20,0.0
same,"TOTAL BILIRUBIN, Mean (SD)",DW20,9.7 (6.78)
same,"TOTAL BILIRUBIN, Median",DW20,9.0
same,"ALKALINE PHOSPHATASE Change from Baseline, Mean (SD)",DW24,−11.6 (166.86)
same,"ALKALINE PHOSPHATASE Change from Baseline, Median",DW24,−29.0
same,"ALKALINE PHOSPHATASE, Mean (SD)",DW24,169.6 (204.22)
same,"ALKALINE PHOSPHATASE, Median",DW24,131.0
same,"ALT (SGPT) Change from Baseline, Mean (SD)",DW24,−13.5 (24.40)
